# Assay results from patent publication US20110190324A1, “METHODS OF TREATING ATHEROSCLEROSIS” (priority 2008, published 2011).
# “Also recorded” adds a separate entry of the source.
# What was measured:
# Type in all cases: cell-based, human
# HIF-1α protein = HIF-1α protein accumulation, western blot; details: foam cells; for Antagonism of adenosine induced HIF-1α protein accumulation: hypoxia, adenosine 100 μM, antagonist 100 nM
# Description: Hypoxic exposures were done in a modular incubator chamber and flushed with a gas mixture containing 1% O2, 5% CO2 and balance N2 (MiniGalaxy, RSBiotech, Irvine, Scotland).
# U937 cells were induced to differentiate into macrophages by treatment with phorbol myristate acetate (PMA, 40 nM) for 72 h. […] All dialyses were carried out with Pierce Slide-A-Lyzer cassettes (10,000 molecular wheight cut-off).
# Whole cell lysates were prepared as described previously (27). […] In experiments aimed to detect HIF, western blot analyses were performed using antibody against HIF-1a (1:250 dilution) and HIF-1β (1:1000 dilution) in 5% non-fat dry milk in PBS/0.1% Tween-20 overnight at 4° C. The protein concentration was determined using BCA protein assay kit (Pierce, Rockford, Ill.). Tubulin (1:250) was used to ensure equal protein loading. Immunoreactivity was assessed and quantified by using a VersaDoc Imaging System (Bio-Rad).
# [1] = tested on: foam cell formation from PMA-treated U937 cells; experiment: Oil red O staining, foam cell formation; details: oxLDL 50 μg/mL; for Effect on oxLDL and adenosine induced foam cells formation: adenosine 100 μM
# Description: (§1) U937 cells were induced to differentiate into macrophages by treatment with phorbol myristate acetate (PMA, 40 nM) for 72 h. Before use oxLDL was dialyzed against 1 L of 0.15 M sodium chloride and 0.3 mM EDTA (pH 7.4) for 12 h at 4° C., then against RPMI 1640 medium (two changes, 1 L/each change) for 24 h. All dialyses were carried out with Pierce Slide-A-Lyzer cassettes (10,000 molecular wheight cut-off). After dialysis, lipoproteins were sterilized by passing them through a 0.45 μm (pore-size) filter, then added (50-100 μg/mL, Intracel, Frederick, Md.) to PMA-treated U937 cells and incubated in serum-free RPMI 1640 for 48 h.
# Treatment of PMA-differentiated U937 cells with test agents was performed 2 h before addition of oxLDL. After exposition to oxLDL under hypoxia for 24 h, U937 cells were fixed in phosphate buffered saline-buffered 4% paraformaldehyde solution for 15 min and then air dried. Oil red O (in 60% isopropanol) staining was done for 15 min essentially as described previously by Kalayoglu and Byrne (Infect. Immun., 66: 5067-5072, 1998). Cells were viewed under a bright-field microscope in 100× fields using a Nikon's Eclipse E800 microscope. Foam cells were defined as macrophages in which cytoplasm was filled with Oil red O-stainable lipid droplets.
# VEGF = VEGF secretion by U937 derived foam cells, ELISA; details: 24 h, hypoxia, adenosine 100 μM, antagonist 100 nM
# Description: as §1
# (§2) The levels of VEGF and IL-8 protein secreted by the cells in the medium were determined by VEGF and IL-8 ELISA kits (R&D Systems) according to the manufacturer's instructions. The data were presented as mean±SD from three independent experiments.
# IL-8 = IL-8 secretion by U937 derived foam cells, ELISA
# Description: as §1, §2
SMILES,Effect on oxLDL and adenosine induced foam cells formation ([1]; antagonist 100 nM),Reduction of adenosine induced VEGF increase (VEGF),Antagonism of adenosine induced HIF-1α protein accumulation (HIF-1α protein),further results
CCNC(=O)[C@H]1O[C@@H](n2cnc3c(Nc4ccc(OCC(=O)Nc5ccccc5)cc4)ncnc32)[C@H](O)[C@@H]1O [1-deoxy-1-[6-{4-[(phenylcarbamoyl)-methoxy]phenylamino}-9H-purin-9-yl]-N-ethyl-β-D-ribofuranuronamide],,,,"Induction of HIF-1α protein by adenosine receptor agonists (HIF-1α protein; CHA 10, 100 nM, CGS 21680 500, 1000 nM, A2B agonist 10, 100 nM, CI-IB-MECA 10, 100 nM): able to induce HIF-1α protein"
"CCCn1c(=O)c2[nH]c(-c3cc(OCC(=O)Nc4ccc5c(c4)OCO5)nn3C)nc2n(CCC)c1=O [MRE-2029F20, N-benzo[1,3]dioxol-5-yl-2-[5-(1,3-dipropyl-2,6-dioxo-2,3,6,7-tetrahydro-1H-purin-8-yl)-1-methyl-1H-pyrazol-3-yl-oxy]-acetamide]",blocked the foam cells formation; also recorded: inhibition of foam cell formation,strongly reduced,partially antagonized,"Block of the effect of the adenosine A2B receptor agonist (1 μM) on IL-8 secretion (IL-8): completely blocked; Block of adenosine induced IL-8 increase (IL-8; hypoxia, adenosine 100 μM, antagonist 100 nM): blocked"
"CCCn1cc2c(nc(NC(=O)Nc3ccc(OC)cc3)n3nc(-c4ccco4)nc23)n1 [MRE-3008F20, 5-[[(4-methoxyphenyl)amino]carbonyl]amino-8-propyl-2-(2-furyl)-pyrazolo[4,3-e]-1,2,4-triazolo[1,5-c]pyrimidine]",inhibition of foam cell formation; also recorded: blocked the foam cells formation,strongly reduced,partially antagonized,
Nc1nc2c(cnn2CCc2ccccc2)c2nc(-c3ccco3)nn12 [SCH 58261],,inhibited to lesser extent,partially antagonized,
COc1ccccc1NC(=O)Nc1nc(-c2cccnc2)nc2ccccc12 [VUF 5574],,,,Effect on oxLDL and adenosine induced foam cells formation ([1]; antagonist 10 nM): blocked the foam cells formation; also recorded: inhibition of foam cell formation
Nc1ncnc2c1ncn2[C@@H]1O[C@H](CO)[C@@H](O)[C@H]1O [adenosine],,,,"Foam cells (Oil red O) on top of oxLDL ([1]; 24 h, 100 μM): increased"
